Source: ChEMBL document CHEMBL6120962, “New Mitochondria-Targeted Fisetin Derivative Compromises Mitophagy and Limits Survival of Drug-Induced Senescent Breast Cancer Cells” (J Med Chem, 2024)
Calls of active or inactive are those of the source. No cut-off for these calls is given here.

What was measured:
MCF-10F [1] = assay: Induction of mitochondrial dysfunction in tamoxifen-induced senescent human MCF-10F cells assessed as decrease in ATP production at 5 uM incubated for 6 hrs by real-time analysis; type: functional, cell-based
MCF-10F [2] = assay: Induction of mitochondrial dysfunction in tamoxifen-induced senescent human MCF-10F cells assessed as decrease in maximal respiration at 5 uM incubated for 6 hrs by real-time analysis; type: functional, cell-based
HCC1428 [3] = assay: Induction of apoptosis in tamoxifen-induced senescent human HCC1428 cells assessed as phosphatidylserine externalization at 1 to 5 uM incubated for 24 hrs by Annexin V-FITC staining based flow cytometric analysis; type: functional, cell-based; conditions: dose 1-5 µM
BJ [4] = assay: Cytotoxicity against human BJ cells assessed as effect on metabolic activity at 10 uM incubated for 24 hrs by MTT assay; type: toxicity, cell-based
ZR-75-30 [5] = assay: Induction of apoptosis in tamoxifen-induced senescent human ZR-75-30 cells assessed as phosphatidylserine externalization at 1 to 5 uM incubated for 24 hrs by Annexin V-FITC staining based flow cytometric analysis; type: functional, cell-based; conditions: dose 1-5 µM
MCF7 = assay: Antitumor activity against ER-positive human MCF7 cells xenografted in Danio rerio embryo assessed as decrease in tumor size at 1 to 5 uM administered for 48 hrs by imaging analysis; type: functional, cell-based; conditions: dose 1-5 µM
T47D = assay: Antitumor activity against ER-positive human T47D cells xenografted in Danio rerio embryo assessed as decrease in tumor size at 1 to 5 uM administered for 48 hrs by imaging analysis; type: functional, cell-based; conditions: dose 1-5 µM
Mitochondrial membrane [6] = assay: Induction of mitochondrial membrane potential depolarization in human HCC1428 cells at 1 to 5 uM incubated for 24 hrs by 7-AAD staining based flow cytometric analysis; type: cell membranes; conditions: dose 1-5 µM
Mitochondrial membrane [7] = assay: Induction of mitochondrial membrane potential depolarization in human HCC1500 cells at 1 to 5 uM incubated for 24 hrs by 7-AAD staining based flow cytometric analysis; type: cell membranes; conditions: dose 1-5 µM
HCC1428 [8] = assay: Induction of apoptosis in tamoxifen-induced senescent human HCC1428 cells assessed as decrease in AKT level at 5 uM incubated for 24 hrs by Western blotting analysis; type: functional, cell-based
HCC1428 [9] = assay: Induction of autophagosome formation in tamoxifen-induced senescent human HCC1428 cells assessed as increase in LC3B level at 1 to 5 uM by immunostaining based imaging cytometric analysis; type: functional, cell-based; conditions: dose 1-5 µM
MCF-10F [10] = assay: Induction of mitochondrial dysfunction in tamoxifen-induced senescent human MCF-10F cells assessed as decrease in coupling efficiency at 5 uM incubated for 6 hrs by real-time analysis; type: functional, cell-based
HCC1428 [11] = assay: Induction of mitochondrial dysfunction in tamoxifen-induced senescent human HCC1428 cells assessed as decrease in ATP production at 5 uM incubated for 6 hrs by real-time analysis; type: functional, cell-based
CAMA-1 [12] = assay: Induction of apoptosis in human CAMA-1 cells assessed as phosphatidylserine externalization at 1 to 5 uM incubated for 24 hrs by Annexin V-FITC staining based flow cytometric analysis; type: functional, cell-based; conditions: dose 1-5 µM
HCC1428 [13] = assay: Induction of autophagosome formation in tamoxifen-induced senescent human HCC1428 cells assessed as increase in ubiquitin level at 1 to 5 uM by immunostaining based imaging cytometric analysis; type: functional, cell-based; conditions: dose 1-5 µM
MCF-10F [14] = assay: Induction of mitochondrial dysfunction in tamoxifen-induced senescent human MCF-10F cells assessed as decrease in spare respiratory capacity at 5 uM incubated for 6 hrs by real-time analysis; type: functional, cell-based
HCC1428 [15] = assay: Induction of apoptosis in human HCC1428 cells assessed as phosphatidylserine externalization at 1 to 5 uM incubated for 24 hrs by Annexin V-FITC staining based flow cytometric analysis; type: functional, cell-based; conditions: dose 1-5 µM
CAMA-1 [16] = assay: Induction of apoptosis in tamoxifen-induced senescent human CAMA-1 cells assessed as phosphatidylserine externalization at 1 to 5 uM incubated for 24 hrs by Annexin V-FITC staining based flow cytometric analysis; type: functional, cell-based; conditions: dose 1-5 µM
[17] = target: Apoptosis regulator Bcl-2 (Homo sapiens) (UniProt P10415); assay: Binding affinity to recombinant human Bcl-2 assessed as interaction by measuring decrease in chemiluminescence signal at 0.01 to 5 uM incubated overnight by dot-blot analysis; conditions: dose 0.01-5 µM
Sequence of Apoptosis regulator Bcl-2 (Homo sapiens) (P10415 whole entry): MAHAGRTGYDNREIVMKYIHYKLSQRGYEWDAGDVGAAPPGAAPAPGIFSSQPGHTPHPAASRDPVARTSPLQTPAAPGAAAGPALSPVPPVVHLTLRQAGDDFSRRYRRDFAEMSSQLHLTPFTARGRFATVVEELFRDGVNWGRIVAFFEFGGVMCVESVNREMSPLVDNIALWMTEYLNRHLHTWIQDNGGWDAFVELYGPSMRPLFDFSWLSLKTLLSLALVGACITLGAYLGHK

HCC1428 [18] = assay: Induction of autophagy in tamoxifen-induced senescent human HCC1428 cells assessed as increase in VPS34 level at 1 to 5 uM by immunostaining based imaging cytometric analysis; type: functional, cell-based; conditions: dose 1-5 µM
HCC1428 [19] = assay: Induction of ubiquitin-dependent mitophagy in tamoxifen-induced senescent human HCC1428 cells assessed as increase in PINK1 level at 1 to 5 uM by immunostaining based imaging cytometric analysis; type: functional, cell-based; conditions: dose 1-5 µM
HCC1428 [20] = assay: Induction of ubiquitin-dependent mitophagy in tamoxifen-induced senescent human HCC1428 cells assessed as increase in parkin level at 1 to 5 uM by immunostaining based imaging cytometric analysis; type: functional, cell-based; conditions: dose 1-5 µM
HCC1428 [21] = assay: Induction of mitochondrial dysfunction in tamoxifen-induced senescent human HCC1428 cells assessed as decrease in maximal respiration at 5 uM incubated for 6 hrs by real-time analysis; type: functional, cell-based
HCC1500 [22] = assay: Induction of apoptosis in human HCC1500 cells assessed as phosphatidylserine externalization at 1 to 5 uM incubated for 24 hrs by Annexin V-FITC staining based flow cytometric analysis; type: functional, cell-based; conditions: dose 1-5 µM
HCC1500 [23] = assay: Induction of apoptosis in tamoxifen-induced senescent human HCC1500 cells assessed as phosphatidylserine externalization at 1 to 5 uM incubated for 24 hrs by Annexin V-FITC staining based flow cytometric analysis; type: functional, cell-based; conditions: dose 1-5 µM
HCC1428 [24] = assay: Upregulation of BECN1 level in tamoxifen-induced senescent human HCC1428 cells at 1 to 5 uM by immunostaining based imaging cytometric analysis; type: functional, cell-based; conditions: dose 1-5 µM
HCC1428 [25] = assay: Induction of autophagy in tamoxifen-induced senescent human HCC1428 cells assessed as increase in ULK1 level at 1 to 5 uM by immunostaining based imaging cytometric analysis; type: functional, cell-based; conditions: dose 1-5 µM
HCC1428 [26] = assay: Induction of mitochondrial dysfunction in tamoxifen-induced senescent human HCC1428 cells assessed as decrease in coupling efficiency respiration at 5 uM incubated for 6 hrs by real-time analysis; type: functional, cell-based
ZR-75-30 [27] = assay: Induction of apoptosis in human ZR-75-30 cells assessed as phosphatidylserine externalization at 1 to 5 uM incubated for 24 hrs by Annexin V-FITC staining based flow cytometric analysis; type: functional, cell-based; conditions: dose 1-5 µM
HCC1428 [28] = assay: Anticancer activity against ER-positive human HCC1428 cells assessed as effect on metabolic activity at 10 uM incubated for 24 hrs by MTT assay; type: functional, cell-based
MCF-10F [29] = assay: Induction of mitochondrial dysfunction in tamoxifen-induced senescent human MCF-10F cells assessed as increase in proton leak at 5 uM incubated for 6 hrs by real-time analysis; type: functional, cell-based
HCC1428 [30] = assay: Induction of mitochondrial dysfunction in tamoxifen-induced senescent human HCC1428 cells assessed as increase in proton leak at 5 uM incubated for 6 hrs by real-time analysis; type: functional, cell-based
HCC1428 [31] = assay: Induction of mitochondrial dysfunction in tamoxifen-induced senescent human HCC1428 cells assessed as decrease in spare respiratory capacity at 5 uM incubated for 6 hrs by real-time analysis; type: functional, cell-based
HCC1428 [32] = assay: Induction of alternative mitophagy in tamoxifen-induced senescent human HCC1428 cells assessed as increase in Rab9 level at 1 to 5 uM by immunostaining based imaging cytometric analysis; type: functional, cell-based; conditions: dose 1-5 µM
[33] = target: RAC-alpha serine/threonine-protein kinase (Homo sapiens) (UniProt P31749); assay: Binding affinity to recombinant human AKT (14 to 276 residues) assessed as interaction by measuring decrease in chemiluminescence signal at 0.01 to 5 uM incubated overnight by dot-blot analysis; conditions: dose 0.01-5 µM
Sequence of RAC-alpha serine/threonine-protein kinase (Homo sapiens) (P31749 whole entry, the tested form may be a part): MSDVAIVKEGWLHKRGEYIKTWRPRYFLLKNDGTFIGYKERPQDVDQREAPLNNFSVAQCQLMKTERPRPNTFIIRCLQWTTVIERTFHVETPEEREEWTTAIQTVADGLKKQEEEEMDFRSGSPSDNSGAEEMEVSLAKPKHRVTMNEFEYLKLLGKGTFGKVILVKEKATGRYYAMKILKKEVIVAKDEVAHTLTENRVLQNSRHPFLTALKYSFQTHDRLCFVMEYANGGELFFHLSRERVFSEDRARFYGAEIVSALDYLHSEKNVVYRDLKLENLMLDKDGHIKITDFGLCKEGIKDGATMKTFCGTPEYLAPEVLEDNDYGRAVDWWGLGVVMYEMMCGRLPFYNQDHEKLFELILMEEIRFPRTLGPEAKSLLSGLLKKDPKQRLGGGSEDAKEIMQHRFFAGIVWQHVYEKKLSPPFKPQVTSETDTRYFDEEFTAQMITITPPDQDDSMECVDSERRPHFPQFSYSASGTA

HCC1428 [34] = assay: Induction of ubiquitin-independent mitophagy in tamoxifen-induced senescent human HCC1428 cells assessed as increase in BNIP3 level at 1 to 5 uM by immunostaining based imaging cytometric analysis; type: functional, cell-based; conditions: dose 1-5 µM
Mitochondrial membrane [35] = assay: Induction of mitochondrial membrane potential depolarization in human ZR-75-30 cells at 1 to 5 uM incubated for 24 hrs by 7-AAD staining based flow cytometric analysis; type: cell membranes; conditions: dose 1-5 µM
Mitochondrial membrane [36] = assay: Induction of mitochondrial membrane potential depolarization in human CAMA-1 cells at 1 to 5 uM incubated for 24 hrs by 7-AAD staining based flow cytometric analysis; type: cell membranes; conditions: dose 1-5 µM
HCC1428 [37] = assay: Induction of mitochondrial dysfunction in human HCC1428 cells assessed as decrease in coupling efficiency at 5 uM incubated for 6 hrs by real time analysis; type: functional, cell-based
HCC1500 [38] = assay: Anticancer activity against ER-positive human HCC1500 cells assessed as effect on metabolic activity upto 10 uM incubated for 24 hrs by MTT assay; type: functional, cell-based
BJ [39] = assay: Cytotoxicity against human BJ cells assessed as effect on metabolic activity at 1 to 10 uM incubated for 24 hrs by MTT assay; type: toxicity, cell-based; conditions: dose 1-10 µM
ZR-75-30 [40] = assay: Anticancer activity against ER-positive human ZR-75-30 cells assessed as effect on metabolic activity upto 10 uM incubated for 24 hrs by MTT assay; type: functional, cell-based
HCC1428 [41] = assay: Induction of mitochondrial dysfunction in human HCC1428 cells assessed as decrease in spare respiratory capacity at 5 uM incubated for 6 hrs by real time analysis; type: functional, cell-based
CAMA-1 [42] = assay: Anticancer activity against ER-positive human CAMA-1 cells assessed as effect on metabolic activity upto 10 uM incubated for 24 hrs by MTT assay; type: functional, cell-based
HCC1428 [43] = assay: Induction of mitochondrial dysfunction in human HCC1428 cells assessed as decrease in maximal respiration at 5 uM incubated for 6 hrs by real time analysis; type: functional, cell-based
HCC1428 [44] = assay: Anticancer activity against ER-positive human HCC1428 cells assessed as effect on metabolic activity upto 10 uM incubated for 24 hrs by MTT assay; type: functional, cell-based
[45] = Cytotoxicity against human MCF-10F cells assessed as effect on metabolic activity at 1 to 10 uM incubated for 24 hrs by MTT assay; type: toxicity, cell-based; conditions: dose 1-10 µM
HCC1428 [46] = assay: Induction of mitochondrial dysfunction in human HCC1428 cells assessed as increase in proton leak at 5 uM incubated for 6 hrs by real time analysis; type: functional, cell-based
HCC1428 [47] = assay: Induction of mitochondrial dysfunction in human HCC1428 cells assessed as decrease in ATP production at 5 uM incubated for 6 hrs by real time analysis; type: functional, cell-based

SMILES: O=c1c(O)c(-c2ccc(O)c(O)c2)oc2cc(O)ccc12 [FISETIN]
- Activity (MCF-10F [1]): inactive
- Activity (MCF-10F [2]): inactive
- Activity (HCC1428 [3]): inactive
- Activity (BJ [4]): Toxic
- Activity (ZR-75-30 [5]): inactive
- Activity (MCF7): inactive
- Activity (T47D): inactive
- Activity (Mitochondrial membrane [6]): inactive
- Activity (Mitochondrial membrane [7]): inactive
- Activity (HCC1428 [8]): Active
- Activity (HCC1428 [9]): inactive
- Activity (MCF-10F [10]): inactive
- Activity (HCC1428 [11]): inactive
- Activity (CAMA-1 [12]): inactive
- Activity (HCC1428 [13]): inactive
- Activity (MCF-10F [14]): inactive
- Activity (HCC1428 [15]): inactive
- Activity (CAMA-1 [16]): inactive
- Activity [17]: Active
- Activity (HCC1428 [18]): inactive
- Activity (HCC1428 [19]): inactive
- Activity (HCC1428 [20]): inactive
- Activity (HCC1428 [21]): inactive
- Activity (HCC1500 [22]): inactive
- Activity (HCC1500 [23]): inactive
- Activity (HCC1428 [24]): inactive
- Activity (HCC1428 [25]): inactive
- Activity (HCC1428 [26]): inactive
- Activity (ZR-75-30 [27]): inactive
- Activity (HCC1428 [28]): Active
- Activity (MCF-10F [29]): inactive
- Activity (HCC1428 [30]): inactive
- Activity (HCC1428 [31]): inactive
- Activity (HCC1428 [32]): inactive
- Activity [33]: Active
- Activity (HCC1428 [34]): inactive
- Activity (Mitochondrial membrane [35]): inactive
- Activity (Mitochondrial membrane [36]): inactive

SMILES: CC(=O)Oc1c(-c2ccc3c(c2)OC(c2ccccc2)(c2ccccc2)O3)oc2cc(OCCCC[P+](c3ccccc3)(c3ccccc3)c3ccccc3)ccc2c1=O.[I-]
- Activity (HCC1428 [37]): Active
- Activity (HCC1500 [38]): Active
- Activity (BJ [39]): Non-toxic
- Activity (ZR-75-30 [40]): Active
- Activity [17]: Active
- Activity (HCC1428 [41]): Active
- Activity (CAMA-1 [42]): Active
- Activity (HCC1428 [43]): Active
- Activity (HCC1428 [44]): Active
- Activity [45]: Non-toxic
- Activity (HCC1428 [46]): Active
- Activity (HCC1428 [47]): Active
- Activity [33]: Active

SMILES: O=c1c(O)c(-c2ccc3c(c2)OC(c2ccccc2)(c2ccccc2)O3)oc2cc(O)ccc12
- Activity (HCC1428 [37]): Active; Slight Effect Observed
- Activity (MCF7): inactive
- Activity (T47D): inactive
- Activity [17]: Active
- Activity (HCC1428 [41]): Active; Slight Effect Observed
- Activity (HCC1428 [43]): Active; Slight Effect Observed
- Activity (HCC1428 [46]): Active; Slight Effect Observed
- Activity (HCC1428 [47]): Active; Slight Effect Observed
- Activity [33]: Active
